Reference: US4587218A, “Novel bioconverting microorganisms” (priority 1983, dated 1986)

Key:
[1] = tested on: Cultures ATCC 23342, ATCC 31683, CSV 558 and CUC 014; assay: Sensitivity to nine antibiotics, all four cultures; type: cell-based, Actinoplanes missouriensis; conditions: identical pattern
Description: Temperature range, NaCl and sucrose tolerances, pH range, and antibiotic sensitivity were determined using ISP No. 2 (yeast-malt extract agar) plates. Plates were incubated at 30° C. for 14 days. The temperatures tested were 5°, 10°, 15°, 20°, 25°, 30°, 37°, 40°, 45°, 50° and 55° C.
Antibiotic sensitivity was determined using sensitivity discs padded on the surface of seeded agar plates. The following antibiotics were used: cephalothin (sodium) 30 μg, erythromycin (estolate) 15 μg, chloromycetin 30 μg, novobiocin 30 μg, penicillin (G) 10 units, rifampin 5 μg, streptomycin 10 μg, tetracycline 30 μg and vancomycin 30 μg.

[2] = tested on: mutants (ATCC 31683, CSV 558 and CUC 014); assay: Buffer toxicity at pH 7.0, mutant strains; conditions: all the mutants; buffers 0.05M adjusted to pH 7.0, growth checked
[3] = tested on: wild-type strain (ATCC 23342); assay: Buffer toxicity at pH 7.0, wild-type strain; conditions: buffers 0.05M adjusted to pH 7.0, growth checked

| Structure (SMILES) | sensitivity to nine antibiotics [1] | sensitivity to citric acid [2] | sensitivity to citric acid [3] |
| --- | --- | --- | --- |
| CC1(C)S[C@@H]2[C@H](NC(=O)Cc3ccccc3)C(=O)N2[C@H]1C(=O)O [Penicillin G] | Resistance |  |  |
| O=C(O)CC(O)(CC(=O)O)C(=O)O [citric acid] |  | sensitive | not sensitive |
| CO[C@@H]1[C@@H](OC(N)=O)[C@@H](O)[C@H](Oc2ccc3c(O)c(NC(=O)c4ccc(O)c(CC=C(C)C)c4)c(=O)oc3c2C)OC1(C)C [Novobiocin] | Resistance |  |  |
